Results as given in US11066444B2, “BMP-2-binding peptide amphiphile nanofibers” (Northwestern University, priority 2014, dated 2021).
Values joined by “and” are separate entries in the source; they are usually repeats but may differ in a detail not shown here. Equal values may be shown once. Residues, ends and D or L forms follow the SMILES beside them. *: point of attachment. Lauroyl = CCCCCCCCCCCC(=O)*

Columns and labels:
C2C12 cells [1] = test: Cell cytotoxicity assay (LDH release, live/dead); format: cell-based; conditions: 10 μg/mL, 5 h, without BMP-2
Experimental: C2C12 cells were treated with 10 μg/mL heparin or PAs for 5 h (Day 0), and a fraction of the media was collected to measure the presence of lactate dehydrogenase (LDH), a cytosolic enzyme only released upon cell lysis, using CytoTox 96 Non-Radioactive Cytotoxicity Assay (Promega, Madison, Wis.) (n=6). In addition, the remaining cells were stained for viable and dead cells using LIVE/DEAD Viability/Cytoxocity Kit (Invitrogen, Grand Island, N.Y.).

C2C12 cells [2] = test: Alkaline phosphatase (ALP) stain, BMP-2-induced osteoblast differentiation; format: cell-based; conditions: 50 ng/mL BMP-2, PA or heparin 0.1-10 μg/mL, 3 days
Experimental: (§1) C2C12 pre-myoblasts were maintained and treated with BMP-2 as depicted in FIG. 5A. C2C12 cells were seeded at 2×10^4 cells/cm2 in 24-well plates in growth media (DMEM with 10% heat-inactivated FBS and 100 U/mL penicillin/streptomycin, P/S) 1 day before treatment. On the following day (Day 0), growth media was replaced with 900 μL maintenance media (growth media with 2.5% FBS) and 100 μL treatment media containing BMP-2 with heparin or PAs. Preparation of the treatment media was as follows: 2.5 μL of BMP-2 stock ([…]) was mixed with 5 μL of heparin or PA stock solutions (0.02, 0.2, or 2 mg/mL), incubated for 5 min on ice, then mixed with DMEM (100 U/mL P/S) to a final volume of 100 μL, followed by 5 min incubation on ice. For treatments with BMP-2 only, the treatment media was prepared according to the method described except without heparin or PAs. Final working concentrations were 50 ng/mL BMP-2 and a range of 0.1, 1, to 10 μg/mL heparin or PAs.
The presence of ALP was stained as a marker for osteoblast differentiation on day 3 by enzymatic labeling described by Mason and Woolston (herein incorporated by reference in its entirety). C2C12 cell layer was fixed with 4% paraformaldehyde (PFA) for 30 s, washed with PBS three times, and stained for 1 h with Naphthol AS-MX phosphate (Sigma-Aldrich, St. Louis, Mo.) and Fast Blue BB salt (Sigma-Aldrich) in 0.1M Tris-HCl at pH 8.2, followed by washing with PBS.

C2C12 cells [3] = test: Alkaline phosphatase (ALP) activity assay, BMP-2-induced osteoblast differentiation; format: cell-based; conditions: 10 μg/mL, without BMP-2, 4 days
Experimental: as §1, with “Final working concentrations were 50 ng/mL BMP-2 and a range of 0.1, 1, to 10 μg/mL heparin or PAs.” left out
ALP activity from C2C12 cell layer was measured using QUANTI-Blue ALP substrate (InvivoGen, San Diego, Calif.). […] The plate was incubated at 37° C. for 18 h and absorbance was measured at 630 nm on SpectraMax M5 Microplate Reader (Molecular Devices, Sunnyvale, Calif.). […] The absorbance values from QUANTI-Blue ALP assay was normalized by the amount of dsDNA in each sample, and the resulting values from heparin and PA treatments were normalized to control (BMP-2 only) to represent the relative fold increase (n=3, in triplicate experiments).

C2C12 cells [4] = test: Real-time PCR of osteogenic genes (Runx2, Osx, Ocn); format: cell-based; conditions: 50 ng/mL BMP-2, 10 μg/mL, 2 days
Experimental: C2C12 cells were treated with 50 ng/ml BMP-2 in the presence of 10 μg/mL heparin or PAs until Day 2, and the osteogenic gene expression levels were determined by real-time PCR as described by Zhao et al. (n=4, in triplicate experiments). Briefly, total RNAs were isolated from cells using TRIzol (Invitrogen) and reverse-transcribed using iScript Reverse Transcription Supermix (Bio-Rad, Des Plaines, Ill.). PCR amplification was analyzed with iQ5 Real-Time PCR Detection System (Bio-Rad) using iQ SYBR Green Supermix (Bio-Rad) and the following primers: Runx2 types II & III (Runx2), 5′-[…]-3′(SEQ ID NO:5) and 5′-CCAAAAGAAGCTTTGCTG-3′ (SEQ ID NO:6); Osterix (Osx), 5′-[…]-3′(SEQ ID NO:7) and 5′-[…]-3′(SEQ ID NO:8); Osteocalcin (Ocn), 5′-[…]-3′(SEQ ID NO:9) and 5′-[…]-3′(SEQ ID NO:10); and Glyceraldehyde-3-phosphate dehydrogenase (GAPDH), 5′-[…]-3′(SEQ ID NO:11) and 5′-[…]-3′(SEQ ID NO:12) (IDT, Coralville, Iowa). For PCR amplification, cDNA was denatured at 94° C. for 5 min, then underwent 40 repeated cycles at 94° C. for 45 s, annealing at 55° C. for 1 min, and extension at 68° C. for 1 min, followed by 79 repeated cycles at 55° C. for 30 s for generation of a melting curve. Expression values of Runx2 II, Osx, and Ocn were normalized to the respective GAPDH levels, and all treatments were normalized to control (BMP-2 only) treatment in order to represent relative fold increase.

[5] = Critical micelle concentration by Nile red fluorescent probe assay; format: physicochemical; conditions: pH 7.4, Nile red
Experimental: To assess PA nanofiber stability, we measured the critical micelle concentration (CMC) of PAs by Nile red fluorescent probe assay (Boekhoven, A. M. Brizard, P. van Rijn, M. C. A. Stuart, R. Eelkema, J. H. van Esch, Angewandte Chemie (International ed in English) 2011, 50, 12285; herein incorporated by reference in its entirety). At pH 7.4, the supramolecular assembly of the BMP-2-binding PA was detected at above 666 nM (1.5 μg/mL), and that of the diluent PA was detected at above 1 μM (1.2 μg/mL) (FIG. 3). The binding affinities of the PAs to BMP-2 were investigated by surface plasmon resonance (SPR) using hexahistidine-tagged BMP-2 (His-BMP-2) that was immobilized on the surface via nickel (II)-nitrilotriacetic acid (Ni^2+-NTA) chelation (Knecht, D. Ricklin, A. N. Eberle, B. Ernst, J. Mol. Recognit. 2009, 22, 270; herein incorporated by reference in its entirety). As a control, the BMP-2-binding PA (1 μm, pH 7.4) was injected to a bare NTA-dextran chip, and we observed non-specific binding of the PA to the surface (FIG. 4). […]
Critical micelle concentration measurements were performed using Nile Red fluorescence spectroscopy. […] These samples were vortexed, sonicated, and were allowed to equilibrate for 24 hours before fluorescence spectra were obtained. For pH 8.5, PA samples were horn sonicated prior to the addition of Nile Red, and fluorescence spectra were obtained the same day.

| Molecule | cytotoxicity (C2C12 cells [1]) | number of ALP-positive cells (C2C12 cells [2]) | ALP expression without BMP-2 (C2C12 cells [3]) | osteoblastic differentiation by mRNA levels relative to BMP-2 alone (C2C12 cells [4]) | critical micelle concentration (supramolecular assembly detected at above) [5] |
| --- | --- | --- | --- | --- | --- |
| heparin sodium [reference compound] | did not induce cytotoxicity | directly proportional association of the number of ALP-positive cells with heparin concentrations up to 10 μg/mL | did not promote ALP expression | enhanced osteoblastic differentiation |  |
| CCCCCCCCCCCC(=O)NCCCC[C@H](NC(=O)[C@@H](NC(=O)[C@@H](NC(=O)[C@@H](NC(=O)[C@H](C)NC(=O)[C@H](C)NC(=O)[C@H](C)NC(=O)[C@H](CCC(=O)O)NC(=O)[C@H](CCC(=O)O)NC(=O)[C@H](CCC(=O)O)NC(=O)[C@H](CO)NC(=O)CNC(=O)CNC(=O)CNC(=O)[C@H](Cc1ccc(O)cc1)NC(=O)[C@@H]1CCCN1C(=O)[C@@H](NC(=O)[C@H](Cc1c[nH]cn1)NC(=O)[C@@H]1CCCN1C(=O)[C@H](CO)NC(=O)[C@@H](N)[C@@H](C)O)C(C)C)C(C)C)C(C)C)C(C)C)C(N)=O [BMP-2-binding PA, C12-(K)V3A3E3-SGGGYPVHPST-NH2] (H-TSPHVPYGGGSEEEAAAVVVK(Lauroyl)-NH2; N-terminus and C-terminus assumed) | did not induce cytotoxicity | slight increase in the number of ALP-positive cells |  | enhanced osteoblastic differentiation | above 666 nM and > 1.5 μg/mL |
| CCCCCCCCCCCCCCCC(=O)N[C@H](C(=O)N[C@H](C(=O)N[C@H](C(=O)N[C@@H](C)C(=O)N[C@@H](C)C(=O)N[C@@H](C)C(=O)N[C@@H](CCC(=O)O)C(=O)N[C@@H](CCC(=O)O)C(=O)N[C@@H](CCC(=O)O)C(=O)O)C(C)C)C(C)C)C(C)C [diluent PA, C16-V3A3E3-COOH] (HELM PEPTIDE1{[CCCCCCCCCCCCCCCC(=O)[*:2]].V.V.V.A.A.A.E.E.E}$$$$V2.0) | did not induce cytotoxicity | increased number of ALP-positive cells |  | enhanced osteoblastic differentiation | above 1 μM and > 1.2 μg/mL |
